From ChEMBL document CHEMBL3992539, “Discovery of a series of N-(5-(quinolin-6-yl)pyridin-3-yl)benzenesulfonamides as PI3K/mTOR dual inhibitors” (Eur J Med Chem, 2017)
Calls of active or inactive are those of the source. No cut-off for these calls is given here.

Legend:
PC-3 = test: Antiproliferative activity against human PC3 cells after 72 hrs by SRB assay; format: functional, cell-based; settings: PC-3, 72 h
[1] = biological target: PI3-kinase p110-alpha/p85-alpha (Homo sapiens, UniProt P42336); test: Inhibition of PI3K p110alpha/p85alpha (unknown origin) using PIP2 as substrate after 1 hr by luminescent kinase-Glo assay; format: protein-complex assay
HCT-116 = test: Antiproliferative activity against human HCT116 cells after 72 hrs by SRB assay; format: functional, cell-based; settings: HCT-116, 72 h
PI3K p110 beta/p85 alpha = PI3K p110 beta/p85 alpha (Homo sapiens, UniProt P42338); test: Inhibition of recombinant full length human N-terminal His6-tagged PI3K p110beta/p85alpha expressed in baculovirus infected Sf21 cells using PIP2 as substrate after 1 hr by ADP-Glo kinase assay
Homo sapiens = species on record: Homo sapiens; test: Inhibition of PI3K in PTEN null human PC3 cells assessed as reduction in Akt phosphorylation at Ser-473 residue at 100 nM after 3 hrs by Western blot method; format: cell-based
[2] = Terminal half life in mouse at 5 mg/kg, po by UPLC-MS/MS analysis; format: ADME, organism-based; settings: in vivo, read-out: beta t1/2 (converted)
[3] = Cmax in mouse at 5 mg/kg, po by UPLC-MS/MS analysis; format: ADME, organism-based; parameters: dose 5 mg/kg, route oral; settings: in vivo
Mus musculus = test: Volume of distribution in mouse at 5 mg/kg, po by UPLC-MS/MS analysis; format: ADME, organism-based; settings: in vivo
[4] = Mean residence time in mouse at 5 mg/kg, po by UPLC-MS/MS analysis; format: ADME, organism-based; settings: in vivo
[5] = biological target: T1, Phosphatidylinositol 4,5-bisphosphate 3-kinase catalytic subunit delta isoform (Homo sapiens, UniProt O00329); test: Inhibition of PI3K p110delta (unknown origin) using PIP2 as substrate after 1 hr by ADP-Glo kinase assay
T1 sequence (O00329 whole entry): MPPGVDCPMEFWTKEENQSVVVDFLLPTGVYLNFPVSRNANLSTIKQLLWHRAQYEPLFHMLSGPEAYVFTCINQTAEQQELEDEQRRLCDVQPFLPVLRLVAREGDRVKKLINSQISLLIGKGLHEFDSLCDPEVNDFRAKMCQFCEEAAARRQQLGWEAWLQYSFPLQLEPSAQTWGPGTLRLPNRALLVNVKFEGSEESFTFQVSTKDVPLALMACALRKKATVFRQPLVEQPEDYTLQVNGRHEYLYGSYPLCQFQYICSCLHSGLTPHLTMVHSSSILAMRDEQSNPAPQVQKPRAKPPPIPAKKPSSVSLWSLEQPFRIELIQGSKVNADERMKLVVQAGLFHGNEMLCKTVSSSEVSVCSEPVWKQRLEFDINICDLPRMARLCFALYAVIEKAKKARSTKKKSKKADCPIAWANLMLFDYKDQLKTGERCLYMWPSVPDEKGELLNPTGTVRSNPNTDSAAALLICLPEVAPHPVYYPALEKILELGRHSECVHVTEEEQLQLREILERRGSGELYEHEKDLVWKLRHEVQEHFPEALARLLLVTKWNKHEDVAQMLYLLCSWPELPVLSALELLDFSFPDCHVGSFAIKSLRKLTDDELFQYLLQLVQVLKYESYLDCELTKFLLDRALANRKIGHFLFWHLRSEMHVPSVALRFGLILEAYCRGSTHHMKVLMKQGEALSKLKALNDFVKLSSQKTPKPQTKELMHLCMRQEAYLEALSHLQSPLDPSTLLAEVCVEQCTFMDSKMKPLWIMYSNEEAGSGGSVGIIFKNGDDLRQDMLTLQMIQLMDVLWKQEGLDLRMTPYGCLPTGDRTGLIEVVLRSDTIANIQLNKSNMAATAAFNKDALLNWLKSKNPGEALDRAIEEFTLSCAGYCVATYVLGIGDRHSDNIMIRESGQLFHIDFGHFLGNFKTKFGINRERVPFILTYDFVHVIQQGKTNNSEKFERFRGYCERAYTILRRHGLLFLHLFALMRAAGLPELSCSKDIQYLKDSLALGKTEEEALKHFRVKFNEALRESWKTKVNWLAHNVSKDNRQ

[6] = biological target: Phosphatidylinositol 4,5-bisphosphate 3-kinase catalytic subunit gamma isoform (Homo sapiens, UniProt P48736); test: Inhibition of recombinant full length His-tagged human PI3K p110gamma expressed in baculovirus expression system using PIP2 as substrate after 1 hr by ADP-Glo kinase assay
[7] = biological target: Serine/threonine-protein kinase mTOR (Homo sapiens, UniProt P42345); test: Inhibition of recombinant human N-terminal FLAG-tagged mTOR (1362-end residues) using ULight-4E-BP1 peptide substrate after 1 hr in presence of ATP by Lance Ultra assay
[8] = Plasma clearance in mouse at 5 mg/kg, po by UPLC-MS/MS analysis; format: ADME, organism-based
[9] = AUCt in mouse at 5 mg/kg, po by UPLC-MS/MS analysis; format: ADME, organism-based; settings: in vivo

Sequence of PI3-kinase p110-alpha/p85-alpha (P27986 whole entry): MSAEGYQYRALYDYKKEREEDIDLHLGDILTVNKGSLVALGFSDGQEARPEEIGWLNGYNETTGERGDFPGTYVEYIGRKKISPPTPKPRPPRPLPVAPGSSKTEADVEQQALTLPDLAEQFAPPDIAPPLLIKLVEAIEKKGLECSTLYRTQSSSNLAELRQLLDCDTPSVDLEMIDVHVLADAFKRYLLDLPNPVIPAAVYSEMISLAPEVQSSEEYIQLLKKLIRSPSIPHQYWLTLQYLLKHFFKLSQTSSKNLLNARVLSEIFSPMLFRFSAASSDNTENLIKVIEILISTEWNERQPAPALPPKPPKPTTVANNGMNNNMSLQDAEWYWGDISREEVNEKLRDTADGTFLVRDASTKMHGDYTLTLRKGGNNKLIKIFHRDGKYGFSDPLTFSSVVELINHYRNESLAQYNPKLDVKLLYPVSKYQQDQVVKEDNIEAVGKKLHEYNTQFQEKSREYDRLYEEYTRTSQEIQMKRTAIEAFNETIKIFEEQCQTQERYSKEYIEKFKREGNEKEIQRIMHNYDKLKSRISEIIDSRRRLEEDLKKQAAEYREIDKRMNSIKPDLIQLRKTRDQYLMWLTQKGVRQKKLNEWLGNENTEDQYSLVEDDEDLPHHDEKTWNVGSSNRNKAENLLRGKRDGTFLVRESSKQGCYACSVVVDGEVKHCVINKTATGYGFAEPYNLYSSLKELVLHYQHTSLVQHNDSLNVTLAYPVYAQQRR
Sequence of PI3-kinase p110-alpha/p85-alpha (P42336 whole entry): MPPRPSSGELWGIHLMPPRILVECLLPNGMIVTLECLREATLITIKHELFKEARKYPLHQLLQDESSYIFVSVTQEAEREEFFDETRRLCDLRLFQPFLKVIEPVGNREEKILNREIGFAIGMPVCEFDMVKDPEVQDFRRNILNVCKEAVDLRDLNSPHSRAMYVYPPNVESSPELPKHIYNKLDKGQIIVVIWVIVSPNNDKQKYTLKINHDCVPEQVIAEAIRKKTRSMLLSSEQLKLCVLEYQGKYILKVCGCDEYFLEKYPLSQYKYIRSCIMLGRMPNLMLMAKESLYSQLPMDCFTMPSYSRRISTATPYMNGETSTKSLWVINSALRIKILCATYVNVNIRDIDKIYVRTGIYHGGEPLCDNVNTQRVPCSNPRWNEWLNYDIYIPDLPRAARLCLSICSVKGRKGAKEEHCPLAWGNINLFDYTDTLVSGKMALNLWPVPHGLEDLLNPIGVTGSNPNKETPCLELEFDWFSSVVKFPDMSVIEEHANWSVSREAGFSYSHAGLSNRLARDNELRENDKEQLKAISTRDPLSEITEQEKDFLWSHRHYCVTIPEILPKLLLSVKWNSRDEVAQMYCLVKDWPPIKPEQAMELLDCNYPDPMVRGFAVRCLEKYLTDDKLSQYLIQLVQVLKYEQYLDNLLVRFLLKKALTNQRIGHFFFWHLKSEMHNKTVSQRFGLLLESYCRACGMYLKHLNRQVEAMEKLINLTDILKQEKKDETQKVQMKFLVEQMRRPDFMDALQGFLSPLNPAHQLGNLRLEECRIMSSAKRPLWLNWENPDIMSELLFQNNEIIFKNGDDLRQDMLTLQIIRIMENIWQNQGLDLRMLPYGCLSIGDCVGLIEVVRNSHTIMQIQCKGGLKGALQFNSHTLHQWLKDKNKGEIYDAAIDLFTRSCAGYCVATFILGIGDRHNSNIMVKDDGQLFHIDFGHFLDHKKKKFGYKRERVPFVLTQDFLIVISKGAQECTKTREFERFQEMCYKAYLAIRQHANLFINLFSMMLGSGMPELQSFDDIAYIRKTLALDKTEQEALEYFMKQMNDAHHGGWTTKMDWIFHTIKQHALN
Sequence of Phosphatidylinositol 4,5-bisphosphate 3-kinase catalytic subunit gamma isoform (P48736 whole entry, canonical isoform): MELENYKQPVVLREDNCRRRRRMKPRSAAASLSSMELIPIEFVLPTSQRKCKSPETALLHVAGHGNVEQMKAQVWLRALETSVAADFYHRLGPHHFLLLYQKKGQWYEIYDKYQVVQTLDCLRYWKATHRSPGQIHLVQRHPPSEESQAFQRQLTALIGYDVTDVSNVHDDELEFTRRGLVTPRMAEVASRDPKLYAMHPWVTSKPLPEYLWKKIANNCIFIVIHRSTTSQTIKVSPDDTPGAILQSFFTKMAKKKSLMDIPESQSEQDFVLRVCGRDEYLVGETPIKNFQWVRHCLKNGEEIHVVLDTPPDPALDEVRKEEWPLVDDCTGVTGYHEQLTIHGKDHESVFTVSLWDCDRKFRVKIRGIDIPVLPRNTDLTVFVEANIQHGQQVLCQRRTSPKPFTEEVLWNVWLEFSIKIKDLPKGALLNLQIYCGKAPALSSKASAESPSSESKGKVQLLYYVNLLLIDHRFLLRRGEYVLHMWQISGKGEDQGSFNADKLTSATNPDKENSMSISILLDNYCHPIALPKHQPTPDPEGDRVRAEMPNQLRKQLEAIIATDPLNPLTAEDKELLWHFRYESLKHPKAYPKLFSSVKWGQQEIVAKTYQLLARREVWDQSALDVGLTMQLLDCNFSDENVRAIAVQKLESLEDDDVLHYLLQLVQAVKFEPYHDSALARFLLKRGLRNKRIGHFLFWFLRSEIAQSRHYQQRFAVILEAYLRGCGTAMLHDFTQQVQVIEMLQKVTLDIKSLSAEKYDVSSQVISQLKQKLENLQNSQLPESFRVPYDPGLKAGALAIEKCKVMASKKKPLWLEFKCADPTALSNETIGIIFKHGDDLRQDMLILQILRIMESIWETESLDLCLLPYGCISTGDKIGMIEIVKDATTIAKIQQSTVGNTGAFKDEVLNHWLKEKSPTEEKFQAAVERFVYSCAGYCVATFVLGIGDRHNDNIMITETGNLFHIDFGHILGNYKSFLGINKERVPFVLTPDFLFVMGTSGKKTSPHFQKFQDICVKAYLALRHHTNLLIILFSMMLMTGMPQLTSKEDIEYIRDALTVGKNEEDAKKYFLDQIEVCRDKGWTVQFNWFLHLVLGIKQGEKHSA
Sequence of PI3K p110 beta/p85 alpha (P27986 whole entry): as the sequence (P27986 whole entry) above
Sequence of PI3K p110 beta/p85 alpha (P42338 whole entry): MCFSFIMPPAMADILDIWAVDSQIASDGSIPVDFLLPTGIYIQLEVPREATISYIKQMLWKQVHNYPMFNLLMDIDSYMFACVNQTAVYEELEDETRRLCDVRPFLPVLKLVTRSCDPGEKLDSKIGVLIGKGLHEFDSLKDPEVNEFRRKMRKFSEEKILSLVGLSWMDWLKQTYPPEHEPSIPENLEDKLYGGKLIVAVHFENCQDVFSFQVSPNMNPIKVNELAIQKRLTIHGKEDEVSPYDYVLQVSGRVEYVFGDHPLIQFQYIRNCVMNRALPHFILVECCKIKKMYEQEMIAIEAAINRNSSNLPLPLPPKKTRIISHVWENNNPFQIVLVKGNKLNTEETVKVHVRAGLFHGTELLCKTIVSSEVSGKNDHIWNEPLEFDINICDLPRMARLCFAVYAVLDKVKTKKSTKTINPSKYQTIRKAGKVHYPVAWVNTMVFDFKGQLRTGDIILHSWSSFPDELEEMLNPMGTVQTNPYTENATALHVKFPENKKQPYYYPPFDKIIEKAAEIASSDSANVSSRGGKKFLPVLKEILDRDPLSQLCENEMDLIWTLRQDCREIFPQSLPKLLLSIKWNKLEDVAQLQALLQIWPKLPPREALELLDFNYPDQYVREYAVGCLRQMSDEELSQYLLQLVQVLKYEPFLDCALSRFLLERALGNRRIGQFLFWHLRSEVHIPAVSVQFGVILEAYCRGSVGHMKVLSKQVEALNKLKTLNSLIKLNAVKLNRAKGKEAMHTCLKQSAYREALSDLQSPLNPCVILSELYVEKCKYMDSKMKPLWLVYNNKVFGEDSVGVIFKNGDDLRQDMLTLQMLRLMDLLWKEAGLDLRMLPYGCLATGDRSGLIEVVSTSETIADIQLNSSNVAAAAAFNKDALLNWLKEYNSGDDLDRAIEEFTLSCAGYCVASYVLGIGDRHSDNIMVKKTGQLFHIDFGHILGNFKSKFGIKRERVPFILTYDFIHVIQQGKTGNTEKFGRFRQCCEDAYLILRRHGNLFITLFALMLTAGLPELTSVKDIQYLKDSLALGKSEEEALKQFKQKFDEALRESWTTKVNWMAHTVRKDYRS

| SMILES | IC50 (PC-3) [nM] | IC50 [1] [nM] | IC50 (HCT-116) [nM] | also measured |
| --- | --- | --- | --- | --- |
| COc1ncc(-c2ccc3ncc(NC(=O)CN4CCC(O)CC4)c(OC)c3c2)cc1NS(=O)(=O)c1ccc(F)cc1F | 3210 | 2 | 1980 | – |
| COc1ncc(-c2ccc3ncc(NCc4ccccc4)c(OC)c3c2)cc1NS(=O)(=O)c1ccc(F)cc1F | 4320 | 36 | 16800 | – |
| COc1ncc(-c2ccc3ncc(NCC4CCN(S(C)(=O)=O)CC4)c(OC)c3c2)cc1NS(=O)(=O)c1ccc(F)cc1F | 2850 | 4.7 | 1360 | – |
| COc1ncc(-c2ccc3ncc(NCc4ccc(C(F)(F)F)cc4)c(OC)c3c2)cc1NS(=O)(=O)c1ccc(F)cc1F | 2880 | 30 | 3220 | – |
| COc1ncc(-c2ccc3ncc(NC(=O)CN4CCOCC4)c(OC)c3c2)cc1NS(=O)(=O)c1ccc(F)cc1 | 1830 | 2.7 | 2830 | – |
| CCNc1cnc2ccc(-c3cnc(OC)c(NS(=O)(=O)c4ccc(F)cc4F)c3)cc2c1OC | 4820 | 9.4 | 1850 | – |
| COc1ccc(CNc2cnc3ccc(-c4cnc(OC)c(NS(=O)(=O)c5ccc(F)cc5F)c4)cc3c2OC)cc1 | 4520 | 27 | 10200 | – |
| COc1ncc(-c2ccc3ncc(NC(=O)CN(C)CCO)c(OC)c3c2)cc1NS(=O)(=O)c1ccc(F)cc1F | 2000 | 1.3 | 1790 | – |
| COc1ncc(-c2ccc3ncc(NC(=O)CN4CCOCC4)c(OC)c3c2)cc1NS(=O)(=O)c1ccc(F)cc1F | 80 | 1.7 | 470 | IC50 (PI3K p110 beta/p85 alpha): 3.9 nM; inhibition (Homo sapiens): Active; half-life [2]: 1.6 h; Cmax [3]: 2950 ng/mL; Vd (Mus musculus): 1 L/kg; MRT [4]: 2.7 h; IC50 [5]: 0.87 nM; IC50 [6]: 8.4 nM; IC50 [7]: 10 nM; CL/F [8]: 7 mL/min/kg; AUC(0-t) [9]: 11700 ng·h/mL |
| COc1ncc(-c2ccc3ncc(NCC4CCCCC4)c(OC)c3c2)cc1NS(=O)(=O)c1ccc(F)cc1F | 9000 | 210 | 13600 | – |
| COc1ncc(-c2ccc3ncc(NCC4CCN(C(C)=O)CC4)c(OC)c3c2)cc1NS(=O)(=O)c1ccc(F)cc1F | 2570 | 3.7 | 1930 | – |
| COc1ncc(-c2ccc3ncc(NC(=O)CN4CCN(C)CC4)c(OC)c3c2)cc1NS(=O)(=O)c1ccc(F)cc1F | 1730 | 3.2 | 1540 | – |
| COc1ncc(-c2ccc3ncc(NC(=O)CN4CCCC(O)C4)c(OC)c3c2)cc1NS(=O)(=O)c1ccc(F)cc1F (stereo unspecified) | 1340 | 1.5 | 1770 | – |
| COc1ncc(-c2ccc3ncc(NC(=O)C4CCCCC4)c(OC)c3c2)cc1NS(=O)(=O)c1ccc(F)cc1F | 6630 | 15 | 4610 | – |
| COc1ncc(-c2ccc3ncc(NC(C)=O)c(OC)c3c2)cc1NS(=O)(=O)c1ccc(F)cc1F | 1240 | 8.4 | 550 | – |
| COc1ncc(-c2ccc3ncc(NC(=O)CN4CCOCC4)c(OC)c3c2)cc1NS(=O)(=O)c1ccc(C(F)(F)F)cc1 | 3750 | 2.26 | 2520 | – |
| Cn1c(=O)n(-c2ccc(C(C)(C)C#N)cc2)c2c3cc(-c4cnc5ccccc5c4)ccc3ncc21 [DACTOLISIB] | 510 | – | 220 | – |
